Source: patent US12643867B2, “Compositions and uses thereof” (University of Virginia Patent Foundation, priority 2017, dated 2026)

Target: T1, PLK1 (Serine/threonine-protein kinase PLK1) (Homo sapiens, UniProt P53350)
T1 construct: Native kinases; endogenous in cells; host or cells: HEK293T soluble proteome
Experiment: SILAC LC-MS ATP acyl phosphate probe competition, native kinases in HEK293T
Assay type: binding
Settings: site Lys1; ATP 1 mM; Ketanserin, Ritanserin 100 μM; RF001 1 mM
Description: Proteomes were diluted to 2 mg/ml in kinase buffer. The light and heavy proteomes (0.5 mg, 250 μL total reaction volume) were pre-treated with vehicle or compound, respectively (5 μL, DMSO (light) or 50× stock in DMSO (heavy)), mixed gently, and incubated at 25° C. for 30 min. […] After incubation, matched light and heavy proteomes were transferred and mixed in a 1:1 ratio in a two-dram vial containing 4:1:3 MeOH/CHCl3/H2O (2 mL MeOH, 500 AL CHCl3, 1.5 mL H2O) for extraction of proteins to remove excess probe, quickly vortexed, and centrifuged at 1,400×g for 3 min to pellet protein. Organic and aqueous layers were removed using a Pasteur pipette, and the protein pellet was transferred to a screw-top tube in 600 μL MeOH. A second extraction was performed by adding CHCl3 (150 μL) and H2O (600 μL) to each sample, vortexed, and centrifuged at 1,400×g for 3 min to pellet protein. Organic and aqueous layers were removed by pipetting. MeOH added to pellet (600 μL) and pellets were re-suspended by sonication (3×1 sec pulse, 20% amplitude) for a final extraction. Samples were then centrifuged at 17,000×g for 5 min to pellet protein and MeOH was removed by pipetting. […] To desalt the samples, each was transferred to a two-dram glass vial, and to the vial 4:1:2 MeOH/CHCl3/H2O (2 mL MeOH, 500 AL CHCl3, 1 mL H2O) was added. The vials were vortexed quickly, spun at 1.400×g for 3 min to pellet protein, and aqueous and organic layers were removed using a Pasteur pipette. The resulting protein pellet was transferred to a screw-top tube in 600 μL MeOH, and then CHCl3 (150 μL) and HO (600 μL) were added to extract protein a second time. The samples were vortexed quickly, centrifuged at 1,400×g to pellet protein, and the aqueous and organic layers were removed by pipetting. Resulting protein pellet was suspended in MeOH (600 μL) via sonication (3×1 sec pulse, 20% amplitude), centrifuged at 17,000×g for 5 min to pellet protein, and MeOH removed by pipetting. […]

T1 sequence (P53350 whole entry): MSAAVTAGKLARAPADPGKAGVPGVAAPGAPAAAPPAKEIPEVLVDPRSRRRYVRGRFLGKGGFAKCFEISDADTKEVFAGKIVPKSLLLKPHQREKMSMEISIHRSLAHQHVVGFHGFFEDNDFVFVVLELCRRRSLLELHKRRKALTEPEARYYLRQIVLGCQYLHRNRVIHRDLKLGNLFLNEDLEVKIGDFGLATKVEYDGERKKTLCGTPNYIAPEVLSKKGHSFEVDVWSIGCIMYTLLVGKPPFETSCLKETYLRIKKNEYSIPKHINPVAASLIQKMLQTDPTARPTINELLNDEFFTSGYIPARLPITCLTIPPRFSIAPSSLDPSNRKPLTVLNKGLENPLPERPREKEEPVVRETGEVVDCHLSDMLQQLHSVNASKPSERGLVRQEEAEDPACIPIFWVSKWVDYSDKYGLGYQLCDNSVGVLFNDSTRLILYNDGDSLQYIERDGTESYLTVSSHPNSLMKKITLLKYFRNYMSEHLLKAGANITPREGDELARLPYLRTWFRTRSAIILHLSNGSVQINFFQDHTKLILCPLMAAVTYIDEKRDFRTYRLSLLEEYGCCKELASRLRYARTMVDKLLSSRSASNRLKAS

Structure (SMILES)	SILAC ratio, PLK1 probe-modified peptide
O=C(c1ccc(F)cc1)C1CCN(CCn2c(=O)[nH]c3ccccc3c2=O)CC1 [Ketanserin]	1.0
Cc1nc2sccn2c(=O)c1CCN1CCC(=C(c2ccc(F)cc2)c2ccc(F)cc2)CC1 [Ritanserin]	1.5
Fc1ccc(C(=C2CCNCC2)c2ccc(F)cc2)cc1 [RF001, 4-(Bis(4-fluorophenyl)methylene) piperidine]	0.9
